Assay [1] deals with T1, Epidermal growth factor receptor [DEL746-750,T790M] (Homo sapiens, UniProt P00533, DEL746-750/T790M).
T1 construct: gene EGFR
The assay is described as follows: Measurement of Inhibitory Ability of the Compounds Represented by Formula 1 According to the Present Invention Against Wild Type EGFR and EGFR Mutants. Here is the method:
(§1) An experiment to measure the activity of the compounds of the present invention against EGFR mutant enzymes was performed as follows using the HTRF system sold by Cisbio. For the EGFR del19/T790M mutant enzyme, a recombinant protein provided by Carna Biosciences was purchased and used, and for the EGFR del19/T790M/C797S mutant enzyme, a protein provided by SignalChem was purchased and used as an enzyme source.The composition of the assay buffer used for measuring the activity was 50 mM Tris-HCl pH 7.5, 100 mM NaCl, 7.5 mM MgCl2, 3 mM KCl, 0.01% Tween 20, 0.1% BSA, and 1 mM DTT. Here, an enzyme reaction was performed using […] and a peptide substrate labeled with biotin at a concentration of 0.5 mM. Analysis of the inhibitory effect of the compounds against the EGFR activity was conducted according to the following analysis reaction recipe.Component 1: 4 μL of an EGFR mutant enzymeComponent 2: 2 μL of a compound solutionComponent 3: 4 μL of ATP and a peptide labeled with biotinThe enzyme reaction was started by first mixing Component 1 and Component 2 and then adding Component 3. After reaction at 37° C. for 2 hours, […] consisting of streptavidin-XL665 and europium-labeled anti-phosphotyrosine antibody provided by Cisbio was added to the enzyme reaction solution and reacted at room temperature for 1 hour. Finally, the ratio of fluorescence values at 615 nm and 665 nm was obtained using the Envision equipment from Perkin-Elmer to quantitatively measure the enzyme activity and confirmed the inhibitory ability of the compounds.

Assay [2] has as its target T2, Epidermal growth factor receptor [DEL746-750,T790M,C797S] (Homo sapiens, UniProt P00533, C797S/DEL746-750/T790M).
T2 construct: gene EGFR
Described as above. Here is the method: as §1

What is called IC50 is the midpoint of a concentration-inhibition curve.

T1 sequence (P00533 with tags, fused parts or gaps DEL746-750/T790M limits assumed): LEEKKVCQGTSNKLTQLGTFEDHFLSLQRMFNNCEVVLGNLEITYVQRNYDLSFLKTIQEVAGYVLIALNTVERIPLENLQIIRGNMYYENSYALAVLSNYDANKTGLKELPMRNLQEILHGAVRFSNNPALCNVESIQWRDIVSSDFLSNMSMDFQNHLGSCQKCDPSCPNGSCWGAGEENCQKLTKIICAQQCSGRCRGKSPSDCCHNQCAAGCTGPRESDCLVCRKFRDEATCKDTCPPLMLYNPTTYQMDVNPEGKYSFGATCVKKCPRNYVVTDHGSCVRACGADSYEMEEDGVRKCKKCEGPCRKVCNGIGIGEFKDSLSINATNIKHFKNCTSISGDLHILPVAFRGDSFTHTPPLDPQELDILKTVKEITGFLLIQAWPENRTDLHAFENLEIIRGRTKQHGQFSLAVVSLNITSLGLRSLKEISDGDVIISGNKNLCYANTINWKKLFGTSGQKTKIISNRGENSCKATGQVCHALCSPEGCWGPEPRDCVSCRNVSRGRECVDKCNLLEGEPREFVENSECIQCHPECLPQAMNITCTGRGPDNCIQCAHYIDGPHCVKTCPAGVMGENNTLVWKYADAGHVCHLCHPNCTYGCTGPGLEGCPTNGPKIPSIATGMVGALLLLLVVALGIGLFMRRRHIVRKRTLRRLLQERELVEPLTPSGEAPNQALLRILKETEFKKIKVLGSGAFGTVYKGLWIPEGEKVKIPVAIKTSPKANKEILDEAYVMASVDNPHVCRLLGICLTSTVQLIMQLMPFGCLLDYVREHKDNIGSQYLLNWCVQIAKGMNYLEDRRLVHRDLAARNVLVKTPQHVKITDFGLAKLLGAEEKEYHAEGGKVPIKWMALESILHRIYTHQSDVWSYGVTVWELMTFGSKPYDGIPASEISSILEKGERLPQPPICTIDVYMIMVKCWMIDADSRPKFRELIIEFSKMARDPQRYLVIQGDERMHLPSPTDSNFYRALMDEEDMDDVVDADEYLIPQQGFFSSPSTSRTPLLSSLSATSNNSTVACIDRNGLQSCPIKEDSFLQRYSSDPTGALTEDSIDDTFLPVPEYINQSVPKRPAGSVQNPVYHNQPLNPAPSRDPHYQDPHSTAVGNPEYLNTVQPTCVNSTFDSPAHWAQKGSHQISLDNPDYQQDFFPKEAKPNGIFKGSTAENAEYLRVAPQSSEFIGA
T2 sequence (P00533 with tags, fused parts or gaps C797S/DEL746-750/T790M limits assumed): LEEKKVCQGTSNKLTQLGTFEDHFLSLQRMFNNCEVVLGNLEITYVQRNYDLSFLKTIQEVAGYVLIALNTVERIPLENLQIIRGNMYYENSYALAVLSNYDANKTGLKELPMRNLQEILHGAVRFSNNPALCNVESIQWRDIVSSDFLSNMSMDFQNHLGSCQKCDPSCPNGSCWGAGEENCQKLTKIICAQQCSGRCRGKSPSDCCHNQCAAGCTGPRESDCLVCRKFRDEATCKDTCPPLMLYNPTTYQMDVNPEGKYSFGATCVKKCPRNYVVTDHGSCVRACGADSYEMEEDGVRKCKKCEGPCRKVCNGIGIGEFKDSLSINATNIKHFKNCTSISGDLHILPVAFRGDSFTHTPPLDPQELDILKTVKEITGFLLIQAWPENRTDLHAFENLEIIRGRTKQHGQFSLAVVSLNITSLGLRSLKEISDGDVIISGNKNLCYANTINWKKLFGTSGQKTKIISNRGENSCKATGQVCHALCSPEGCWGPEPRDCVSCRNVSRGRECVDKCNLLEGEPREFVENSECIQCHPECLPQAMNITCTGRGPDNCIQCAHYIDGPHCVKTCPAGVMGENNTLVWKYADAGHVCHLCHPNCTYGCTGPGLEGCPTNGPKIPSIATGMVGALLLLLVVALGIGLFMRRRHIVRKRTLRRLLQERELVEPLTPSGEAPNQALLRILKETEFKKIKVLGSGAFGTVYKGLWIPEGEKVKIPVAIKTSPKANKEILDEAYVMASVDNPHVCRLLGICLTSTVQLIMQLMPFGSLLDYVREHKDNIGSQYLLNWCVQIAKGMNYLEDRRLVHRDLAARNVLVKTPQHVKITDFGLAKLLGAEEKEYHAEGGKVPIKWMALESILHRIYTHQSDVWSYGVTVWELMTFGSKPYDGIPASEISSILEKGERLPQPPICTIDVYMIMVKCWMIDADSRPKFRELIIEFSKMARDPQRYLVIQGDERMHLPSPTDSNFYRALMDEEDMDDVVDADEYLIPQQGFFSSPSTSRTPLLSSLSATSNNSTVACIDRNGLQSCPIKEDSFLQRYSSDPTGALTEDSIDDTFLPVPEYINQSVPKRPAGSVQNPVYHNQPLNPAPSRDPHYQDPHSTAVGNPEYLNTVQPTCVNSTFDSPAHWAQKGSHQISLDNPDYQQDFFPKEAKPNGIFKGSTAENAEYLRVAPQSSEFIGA

As for `COc1cc(N2CCC(N3CCN(C)CC3)CC2)ccc1Nc1ncc(Cl)c(Nc2cccc3c2N(C(C)=O)CCC3)n1` [US20240352000, Example 15], the IC50 was 0.073 µM in assay [1] and 0.056 µM in assay [2]. Turning to `COc1cc(N2CCC(N3CCN(C)CC3)CC2)ccc1Nc1ncc(Cl)c(Nc2cccc3c2N(C(C)=O)CC3)n1` [US20240352000, Example 12], the half-maximal inhibitory concentration (IC50) in assay [2] was less than 0.001 µM.

Turning to `COc1cc(N2CCC(N3CCNCC3)CC2)ccc1Nc1ncc(Cl)c(Nc2cccc3c2N(S(C)(=O)=O)CC3)n1` [US20240352000, Example 17], the half-maximal inhibitory concentration (IC50) in assay [2] is less than 0.001 µM. With `CCS(=O)(=O)N1CCc2cccc(Nc3nc(Nc4ccc(N5CCC(N6CCN(C)CC6)CC5)cc4OC)ncc3Cl)c21` [US20240352000, Example 13], in assay [1], the IC50 is less than 0.001 µM. Turning to `CCC(=O)N1CCc2cccc(Nc3nc(Nc4ccc(N5CCC(N6CCN(C)CC6)CC5)cc4OC)ncc3Cl)c21` [US20240352000, Example 14], the 50% inhibitory concentration (IC50) worked out at 0.091 µM in assay [1] and 0.05 µM in assay [2]. With `COc1cc(N(C)CCN(C)C)ccc1Nc1ncc(Cl)c(Nc2cccc3c2N(S(C)(=O)=O)CC3)n1` [US20240352000, Example 3], in assay [2], the concentration for half-maximal inhibition (IC50) was less than 0.001 µM.

The values are drawn from BindingDB's records for patent US20240352000 (Korea Research Institute of Chemical Technology, 2024).
